From patent publication US20210268029A1, “METHODS FOR TREATING CANCER WITH MANUFACTURED T CELLS” (RAPA THERAPEUTICS, LLC, priority 2018, published 2021) come the findings set out here.

What all share (assay type): cell-based
For one assay, the system named is T cells. As to the kind of experiment: FoxP3 and TBET intra-cellular expression in T cells cultured ex vivo, day 6 (FIGS. 1A-1B). As to the method: T cells were cultured ex vivo, as indicated, using various ratios of anti-CD3, anti-CD28 beads to T cells (1:1 or 1:12); the mTOR inhibitor temsirolimus (1 μM); without or with the anti-IL-2 receptor monoclonal antibody daclizumab (5 or 50 μg/ml); and either Th1 polarization cytokines (IFN-alpha; 10,000 IU/ml) or control regulatory T cell polarization (IL-2 plus TGF-β). At day 6 of culture, the T cells were evaluated for intra-cellular expression of the regulatory T cell transcription factor FoxP3 and the Th1 transcription factor TBET. (FIGS. 1A-1B).

A further assay relates to CD4^+ and CD8^+ T cells. As to the kind of experiment: Cytokine secretion potential of cultured T cells by Luminex, day 6 and day 13 (FIGS. 3A-3B). As for the experimental part: To evaluate this, we tested cytokine secretion potential of the manufactured T cells at the end of cell culture (day 6) and then again one week after ex vivo expansion after maximal co-stimulation (3/28 bead-to-T cell ratio, 3:1) and propagation in media devoid of any inhibitors. In FIGS. 3A-3B, CD4^+ and CD8^+ T cells were purified and cultured for 6-days either with or without a 16-hr interval of pre-incubation prior to co-stimulation (1:1 ratio of 3/28 beads-to-T cells). As indicated, temsirolimus was added at concentrations of either 1.0 or 0.1 μM; all cultures were supplemented with IFN-α (10,000 IU/ml) and daclizumab (50 μg/ml). On day 6 of culture, the resultant T cells were co-stimulated for 24 hr using a 3:1 ratio of 3/28 beads; the supernatant was tested for cytokine content by Luminex assay (results are described as pg per ml of cytokine secreted per million cells per 24 hr). […] N.A, abbreviation indicates not applicable (insufficient T cell yield to perform assay).

The subject of assay [1] is human CD4^+ and CD8^+ T cells. In words: Western blot of p62, phospho-RAPTOR and BIM after 16-hr pre-incubation (FIGS. 11-13). As to the method: For FIGS. 11-13, human CD4^+ and CD8^+ T cells were cultured using a 16-hr pre-incubation interval prior to the addition of 3/28 beads at the reduced ratio of 1:3 beads-to-T cells. As indicated in FIGS. 11-13, the various T cell cultures received different methods of mTOR inhibition (rapamycin at 1.0 μM; temsirolimus at 1.0 or 0.1 different conditions of exogenous IL-2 addition, and different conditions relative to addition of the anti-IL-2 receptor monoclonal antibody, daclizumab. After the 16-hr pre-incubation interval, cells were harvested from the T cell cultures, protein was isolated, and p62 (FIG. 11), phospho-RAPTOR (FIG. 12), or BIM (FIG. 13) and the housekeeper gene β-actin were quantified by western blot.
On the technique in general: In western blotting, separated proteins are transferred to a membrane and probed.

The mark [2] stands for this setting: TREG-permissive culture: bead ratio 1:12, no IFN-α, exogenous IL-2 plus TGF-β.
Setting [3] is: pre-incubation plus high-dose temsirolimus, compared with other conditions.
Where [4] appears, read: temsirolimus 1.0 μM, after 24 hr maximal co-stimulation, with or without overnight pre-incubation.

As to `CO[C@H]1C[C@@H]2CC[C@@H](C)[C@@](O)(O2)C(=O)C(=O)N2CCCC[C@H]2C(=O)O[C@H]([C@H](C)C[C@@H]2CC[C@@H](OC(=O)C(C)(CO)CO)[C@H](OC)C2)CC(=O)[C@H](C)/C=C(\C)[C@@H](O)[C@@H](OC)C(=O)[C@H](C)C[C@H](C)/C=C/C=C/C=C/1C` [temsirolimus], the FoxP3 expression entry in the assay on T cells (setting [2]) is recorded as “not effective”. The “expression of TBET” value in the assay with T cells (combination of temsirolimus and anti-IL-2 receptor monoclonal antibody) is reported as “increased expression”. For the same molecule, the FoxP3 expression result with T cells (exogenous IL-2 added in combination with IFN-α) is “not effective”. Also, the “T cell expression of FoxP3” value in the assay with T cells (temsirolimus 1.0 μM with IFN-α, relative to day 0 input T cells) is on record as “reduced”. In addition, in the assay on CD4^+ and CD8^+ T cells (setting [3]), the “day 13 T cell IFN-γ secretion” value is “highest” and the “day 13 T cell TNF-α secretion” value is given as “highest”. For the same molecule, in the assay on CD4^+ and CD8^+ T cells (temsirolimus 0.1 μM), the “day 6 T cell cytokine secretion potential” value is on record as “only partially reduced”. In the assay on CD4^+ and CD8^+ T cells (setting [4]), the “day 6 T cell IFN-γ secretion” value is “very low levels” and the “day 6 T cell TNF-α secretion” value is given as “very low levels”. In addition, the phospho-RAPTOR entry in assay [1] (high-dose temsirolimus compared to low-dose temsirolimus or high-dose rapamycin) was “lower levels”. In addition, in assay [1] (pre-incubation, 1:3 beads, daclizumab, rapamycin 1 μM or temsirolimus 1.0 or 0.1), the “autophagy marker p62” value is “autophagy could be realized”.

B1: daclizumab: anti-IL-2 receptor monoclonal antibody (antibody, chains of the INN, looked up, V domains shown)
VH: QVQLVQSGAEVKKPGSSVKVSCKASGYTFTSYRMHWVRQAPGQGLEWIGYINPSTGYTEYNQKFKDKATITADESTNTAYMELSSLRSEDTAVYYCARGGGVFDYWGQGTLVTVSS
VL: DIQMTQSPSTLSASVGDRVTITCSASSSISYMHWYQQKPGKAPKLLIYTTSNLASGVPARFSGSGSGTEFTLTISSLQPDDFATYYCHQRSTYPLTFGQGTKVEVK
For the molecule B1, in the assay on T cells (50 μg/ml daclizumab compared with 5 μg/ml), the TBET expression result is “higher degree”. Also, the FoxP3 expression result with T cells (IL-2 receptor blockade added to temsirolimus and IFN-α, 50 μg/ml more effective than 5 μg/ml) is given as “further reduced”; with T cells (setting [2]), “not effective”.
